In the NIST ThermoML archive (doi:10.1016/j.jct.2015.01.004):
Several values for one entry are separate records, joined by “and”; a condition that tells them apart may be missing. Equal entries are not always repeated. Numbers after ± are expanded uncertainties.

Test: molar heat capacity at constant pressure; xn = mol fraction of the nth substance listed
Settings: 100 kPa

[Si] [silicon] + [Li]
Settings | molar heat capacity at constant pressure
2.03 K, Crystal of intercomponent compound 1, relaxation calorimetry, x2 = 0.81 | 0.0088 ± 0.0007 J/K/mol
2.03 K, Crystal of intercomponent compound 2, relaxation calorimeter, x2 = 0.804 | 0.0022 ± 0.0002 J/K/mol
2.13 K, Crystal of intercomponent compound 1, relaxation calorimetry, x2 = 0.81 | 0.0091 ± 0.0007 J/K/mol
2.13 K, Crystal of intercomponent compound 2, relaxation calorimeter, x2 = 0.804 | 0.0023 ± 0.0002 J/K/mol
2.14 K, Crystal of intercomponent compound 2, relaxation calorimeter, x2 = 0.804 | 0.0022 ± 0.0002 J/K/mol
2.25 K, Crystal of intercomponent compound 1, relaxation calorimetry, x2 = 0.81 | 0.0096 ± 0.0008 J/K/mol
2.25 K, Crystal of intercomponent compound 2, relaxation calorimeter, x2 = 0.804 | 0.0024 ± 0.0002 J/K/mol and 0.0023 ± 0.0002 J/K/mol
2.37 K, Crystal of intercomponent compound 1, relaxation calorimetry, x2 = 0.81 | 0.0101 ± 0.0008 J/K/mol
2.37 K, Crystal of intercomponent compound 2, relaxation calorimeter, x2 = 0.804 | 0.0024 ± 0.0002 J/K/mol and 0.0025 ± 0.0002 J/K/mol
2.49 K, Crystal of intercomponent compound 1, relaxation calorimetry, x2 = 0.81 | 0.0107 ± 0.0008 J/K/mol
2.49 K, Crystal of intercomponent compound 2, relaxation calorimeter, x2 = 0.804 | 0.0026 ± 0.0002 J/K/mol
2.5 K, Crystal of intercomponent compound 2, relaxation calorimeter, x2 = 0.804 | 0.0025 ± 0.0002 J/K/mol
2.63 K, Crystal of intercomponent compound 1, relaxation calorimetry, x2 = 0.81 | 0.0111 ± 0.0009 J/K/mol
2.63 K, Crystal of intercomponent compound 2, relaxation calorimeter, x2 = 0.804 | 0.0028 ± 0.0002 J/K/mol and 0.0025 ± 0.0002 J/K/mol
2.77 K, Crystal of intercomponent compound 1, relaxation calorimetry, x2 = 0.81 | 0.0116 ± 0.0009 J/K/mol
2.77 K, Crystal of intercomponent compound 2, relaxation calorimeter, x2 = 0.804 | 0.0028 ± 0.0002 J/K/mol
2.92 K, Crystal of intercomponent compound 1, relaxation calorimetry, x2 = 0.81 | 0.0121 ± 0.001 J/K/mol
2.92 K, Crystal of intercomponent compound 2, relaxation calorimeter, x2 = 0.804 | 0.0031 ± 0.0003 J/K/mol and 0.003 ± 0.0002 J/K/mol
3.08 K, Crystal of intercomponent compound 1, relaxation calorimetry, x2 = 0.81 | 0.0126 ± 0.001 J/K/mol
3.08 K, Crystal of intercomponent compound 2, relaxation calorimeter, x2 = 0.804 | 0.0032 ± 0.0003 J/K/mol and 0.003 ± 0.0002 J/K/mol
3.24 K, Crystal of intercomponent compound 1, relaxation calorimetry, x2 = 0.81 | 0.0133 ± 0.001 J/K/mol
3.24 K, Crystal of intercomponent compound 2, relaxation calorimeter, x2 = 0.804 | 0.0035 ± 0.0003 J/K/mol and 0.0032 ± 0.0003 J/K/mol
3.41 K, Crystal of intercomponent compound 1, relaxation calorimetry, x2 = 0.81 | 0.0135 ± 0.0011 J/K/mol
3.41 K, Crystal of intercomponent compound 2, relaxation calorimeter, x2 = 0.804 | 0.0036 ± 0.0003 J/K/mol
3.6 K, Crystal of intercomponent compound 1, relaxation calorimetry, x2 = 0.81 | 0.0141 ± 0.0011 J/K/mol
3.6 K, Crystal of intercomponent compound 2, relaxation calorimeter, x2 = 0.804 | 0.0039 ± 0.0003 J/K/mol and 0.0036 ± 0.0003 J/K/mol
3.79 K, Crystal of intercomponent compound 1, relaxation calorimetry, x2 = 0.81 | 0.015 ± 0.0012 J/K/mol
3.79 K, Crystal of intercomponent compound 2, relaxation calorimeter, x2 = 0.804 | 0.0041 ± 0.0003 J/K/mol and 0.004 ± 0.0003 J/K/mol
3.99 K, Crystal of intercomponent compound 1, relaxation calorimetry, x2 = 0.81 | 0.0157 ± 0.0012 J/K/mol
3.99 K, Crystal of intercomponent compound 2, relaxation calorimeter, x2 = 0.804 | 0.0044 ± 0.0004 J/K/mol and 0.0042 ± 0.0003 J/K/mol
4.2 K, Crystal of intercomponent compound 1, relaxation calorimetry, x2 = 0.81 | 0.0163 ± 0.0013 J/K/mol
4.2 K, Crystal of intercomponent compound 2, relaxation calorimeter, x2 = 0.804 | 0.0047 ± 0.0004 J/K/mol and 0.0044 ± 0.0004 J/K/mol
4.43 K, Crystal of intercomponent compound 1, relaxation calorimetry, x2 = 0.81 | 0.0172 ± 0.0014 J/K/mol
4.43 K, Crystal of intercomponent compound 2, relaxation calorimeter, x2 = 0.804 | 0.0048 ± 0.0004 J/K/mol and 0.005 ± 0.0004 J/K/mol
4.66 K, Crystal of intercomponent compound 2, relaxation calorimeter, x2 = 0.804 | 0.0051 ± 0.0004 J/K/mol
4.67 K, Crystal of intercomponent compound 1, relaxation calorimetry, x2 = 0.81 | 0.0175 ± 0.0014 J/K/mol
4.67 K, Crystal of intercomponent compound 2, relaxation calorimeter, x2 = 0.804 | 0.0052 ± 0.0004 J/K/mol
4.91 K, Crystal of intercomponent compound 2, relaxation calorimeter, x2 = 0.804 | 0.0056 ± 0.0004 J/K/mol
4.92 K, Crystal of intercomponent compound 1, relaxation calorimetry, x2 = 0.81 | 0.0182 ± 0.0014 J/K/mol
4.92 K, Crystal of intercomponent compound 2, relaxation calorimeter, x2 = 0.804 | 0.0054 ± 0.0004 J/K/mol
5 K, Crystal of intercomponent compound 1, relaxation calorimetry + DSC, x2 = 0.81 | 0.0184 ± 0.0014 J/K/mol
5 K, Crystal of intercomponent compound 2, relaxation calorimetry + DSC, x2 = 0.804 | 0.0056 ± 0.0005 J/K/mol
5.18 K, Crystal of intercomponent compound 1, relaxation calorimetry, x2 = 0.81 | 0.0193 ± 0.0015 J/K/mol
5.18 K, Crystal of intercomponent compound 2, relaxation calorimeter, x2 = 0.804 | 0.006 ± 0.0005 J/K/mol and 0.0057 ± 0.0005 J/K/mol
5.46 K, Crystal of intercomponent compound 2, relaxation calorimeter, x2 = 0.804 | 0.0064 ± 0.0005 J/K/mol
5.47 K, Crystal of intercomponent compound 1, relaxation calorimetry, x2 = 0.81 | 0.0201 ± 0.0016 J/K/mol
5.47 K, Crystal of intercomponent compound 2, relaxation calorimeter, x2 = 0.804 | 0.0061 ± 0.0005 J/K/mol
5.76 K, Crystal of intercomponent compound 1, relaxation calorimetry, x2 = 0.81 | 0.0206 ± 0.0016 J/K/mol
5.76 K, Crystal of intercomponent compound 2, relaxation calorimeter, x2 = 0.804 | 0.007 ± 0.0006 J/K/mol and 0.0066 ± 0.0005 J/K/mol
6.07 K, Crystal of intercomponent compound 1, relaxation calorimetry, x2 = 0.81 | 0.0218 ± 0.0017 J/K/mol
6.07 K, Crystal of intercomponent compound 2, relaxation calorimeter, x2 = 0.804 | 0.0075 ± 0.0006 J/K/mol and 0.0071 ± 0.0006 J/K/mol
6.39 K, Crystal of intercomponent compound 1, relaxation calorimetry, x2 = 0.81 | 0.0227 ± 0.0018 J/K/mol
6.39 K, Crystal of intercomponent compound 2, relaxation calorimeter, x2 = 0.804 | 0.0083 ± 0.0007 J/K/mol and 0.0079 ± 0.0006 J/K/mol
6.73 K, Crystal of intercomponent compound 1, relaxation calorimetry, x2 = 0.81 | 0.0242 ± 0.0019 J/K/mol
6.73 K, Crystal of intercomponent compound 2, relaxation calorimeter, x2 = 0.804 | 0.0091 ± 0.0007 J/K/mol and 0.0088 ± 0.0007 J/K/mol
7.09 K, Crystal of intercomponent compound 1, relaxation calorimetry, x2 = 0.81 | 0.0252 ± 0.002 J/K/mol
7.09 K, Crystal of intercomponent compound 2, relaxation calorimeter, x2 = 0.804 | 0.0098 ± 0.0008 J/K/mol and 0.01 ± 0.0008 J/K/mol
7.47 K, Crystal of intercomponent compound 1, relaxation calorimetry, x2 = 0.81 | 0.0267 ± 0.0021 J/K/mol
7.47 K, Crystal of intercomponent compound 2, relaxation calorimeter, x2 = 0.804 | 0.0113 ± 0.0009 J/K/mol and 0.0109 ± 0.0009 J/K/mol
7.87 K, Crystal of intercomponent compound 1, relaxation calorimetry, x2 = 0.81 | 0.0284 ± 0.0022 J/K/mol
7.87 K, Crystal of intercomponent compound 2, relaxation calorimeter, x2 = 0.804 | 0.0126 ± 0.001 J/K/mol and 0.0123 ± 0.001 J/K/mol
8.29 K, Crystal of intercomponent compound 2, relaxation calorimeter, x2 = 0.804 | 0.0143 ± 0.0011 J/K/mol and 0.0139 ± 0.0011 J/K/mol
8.3 K, Crystal of intercomponent compound 1, relaxation calorimetry, x2 = 0.81 | 0.0304 ± 0.0024 J/K/mol
8.74 K, Crystal of intercomponent compound 1, relaxation calorimetry, x2 = 0.81 | 0.0327 ± 0.0026 J/K/mol
8.74 K, Crystal of intercomponent compound 2, relaxation calorimeter, x2 = 0.804 | 0.016 ± 0.0013 J/K/mol and 0.0162 ± 0.0013 J/K/mol
9.2 K, Crystal of intercomponent compound 1, relaxation calorimetry, x2 = 0.81 | 0.0351 ± 0.0028 J/K/mol
9.2 K, Crystal of intercomponent compound 2, relaxation calorimeter, x2 = 0.804 | 0.0183 ± 0.0014 J/K/mol and 0.0187 ± 0.0015 J/K/mol
9.69 K, Crystal of intercomponent compound 2, relaxation calorimeter, x2 = 0.804 | 0.0216 ± 0.0017 J/K/mol and 0.0208 ± 0.0016 J/K/mol
9.7 K, Crystal of intercomponent compound 1, relaxation calorimetry, x2 = 0.81 | 0.038 ± 0.003 J/K/mol
10 K, Crystal of intercomponent compound 1, relaxation calorimetry + DSC, x2 = 0.81 | 0.0403 ± 0.0032 J/K/mol
10 K, Crystal of intercomponent compound 2, relaxation calorimetry + DSC, x2 = 0.804 | 0.0233 ± 0.002 J/K/mol
10.22 K, Crystal of intercomponent compound 1, relaxation calorimetry, x2 = 0.81 | 0.0412 ± 0.0032 J/K/mol
10.22 K, Crystal of intercomponent compound 2, relaxation calorimeter, x2 = 0.804 | 0.0245 ± 0.0019 J/K/mol and 0.025 ± 0.002 J/K/mol
10.75 K, Crystal of intercomponent compound 1, relaxation calorimetry, x2 = 0.81 | 0.0449 ± 0.0035 J/K/mol
10.75 K, Crystal of intercomponent compound 2, relaxation calorimeter, x2 = 0.804 | 0.0286 ± 0.0022 J/K/mol and 0.0291 ± 0.0023 J/K/mol
11.32 K, Crystal of intercomponent compound 1, relaxation calorimetry, x2 = 0.81 | 0.0492 ± 0.0039 J/K/mol
11.32 K, Crystal of intercomponent compound 2, relaxation calorimeter, x2 = 0.804 | 0.0342 ± 0.0027 J/K/mol and 0.0335 ± 0.0026 J/K/mol
11.93 K, Crystal of intercomponent compound 1, relaxation calorimetry, x2 = 0.81 | 0.0547 ± 0.0043 J/K/mol
11.93 K, Crystal of intercomponent compound 2, relaxation calorimeter, x2 = 0.804 | 0.0403 ± 0.0032 J/K/mol and 0.0398 ± 0.0031 J/K/mol
12.56 K, Crystal of intercomponent compound 1, relaxation calorimetry, x2 = 0.81 | 0.0613 ± 0.0048 J/K/mol
